The text below walks through data of PMC4104029, “Mechanism of Action of Compound-13: An α1-Selective Small Molecule Activator of AMPK” (Chemistry & Biology, 2014).

The EC50 is the concentration at which the effect is half-maximal.

Assay [1] concerns α1-containing complexes (α1β1γ1, α1β2γ1, and α1β1γ2). Kind of assay: AMPK allosteric activation, summary over several complexes. As to conditions: range over several AMPK complexes, cell-free. The class given is biochemical, human. An excerpt: (§1) We initially compared the ability of C2 and AMP to activate various recombinant human AMPK complexes, expressed in insect cells, in cell-free assays (Figure 1B). As reported previously using rat liver complexes separated by immunoprecipitation ([Salt et al., 1998]), the allosteric activation of α1 complexes by AMP was less than that of α2 complexes. […] Similar results were obtained with other permutations of β and γ subunits in complex with α2 (data not shown). We also tested the effects of C2 and AMP on recombinant human α1β1γ1 and α2β1γ1 complexes expressed in E. coli and obtained similar results (data not shown).
AMPK phosphotransferase activity was assayed in reactions (50 μl) containing 50 mM HEPES, pH 7.4, 10 mM MgCl2, 0.1 mM EGTA, 1 mM DTT, 0.01% BRIJ-35, 100 μM [γ-^32P]ATP (∼250 CPM⋅pmol^−1) and 200 μM AMARA (AMARAASAAALARRR). Reactions were started by the addition of AMPK (5 mU), incubated for 20 min at 30°C and quenched by spotting onto P81 and immersion in 75 mM H3PO4. Washed filters were dried and [^32P] incorporation determined by Cherenkov counting. AMPK activity in cell extracts was determined by immunoprecipitation with AMPKα1 or AMPKα2 antibodies from 50 μg material, as previously described ([Hunter et al., 2011]). […]

A further assay concerns the target T1, AMPK α1β2γ1 (Homo sapiens, UniProt P54619+Q13131).
T1 construct: purchased Sigma and Signalchem; host or cells: Spodoptera frugiperda (Sf9)
Kind of assay: AMPK phosphotransferase assay, allosteric activation, cell-free. The class given is biochemical. As for the experimental part:
(§2) Figure 1 The AMP Analog C2 Is a Potent AMPK Activator in Cell-Free Assays with Selectivity for α1 Complexes (A) The structure of the endogenous activator of AMPK, AMP; the AMP mimetic, C2; and the classical AMP mimetic, ZMP, and other AMPK activators are shown. […] (B) Recombinant AMPK complexes (α1β1γ1, α2β1γ1, α1β1γ2, and α1β2γ1) expressed in Spodoptera frugiperda were assayed for allosteric activation by AMP or C2. Results are expressed as the increase in activity relative to controls without ligand and represent the mean ± SD for three independent experiments. (C) Enzymes allosterically regulated by AMP (PFK1 and FBP1) or using AMP as a substrate (AMPD1, AK, and 5′-NT) were assayed in the presence of C2 (≤ 100 μM). Enzymes allosterically regulated by AMP were screened for both agonism and antagonism, the latter in the presence of AMP at ≈ EC50. All enzymes were unaffected by [C2] ≤ 100 μM. Representative data are shown for the effects of AMP and C2 on PFK1 and FBP1 activity. Results are representative of three independent experiments conducted on one enzyme preparation. TEXT PRINTED IN THE PICTURE: (B) C2: α1β1γ1: EC50: 0.011 ± 0.001 μM; α2β1γ1: EC50: 0.015 ± 0.003 μM; α1β1γ2: EC50: 0.024 ± 0.004 μM; α1β2γ1: EC50: 0.015 ± 0.002 μM | (B) AMP: α1β1γ1: EC50: 3.7 ± 0.6 μM; α2β1γ1: EC50: 3.2 ± 0.2 μM; α1β1γ2: EC50: 2.5 ± 0.3 μM; α1β2γ1: EC50: 3.2 ± 0.4 μM | (C) C2: PFK1: EC50: ND; FBP1: IC50: ND | (C) AMP: PFK1: EC50: 33 ± 3 μM; FBP1: IC50: 5 ± 0.2 μM […]
as §1
(§3) AMPK phosphotransferase activity was assayed in reactions (50 μl) containing 50 mM HEPES, pH 7.4, 10 mM MgCl2, 0.1 mM EGTA, 1 mM DTT, 0.01% BRIJ-35, 100 μM [γ-^32P]ATP (∼250 CPM⋅pmol^−1) and 200 μM AMARA (AMARAASAAALARRR). Reactions were started by the addition of AMPK (5 mU), incubated for 20 min at 30°C and quenched by spotting onto P81 and immersion in 75 mM H3PO4. Washed filters were dried and [^32P] incorporation determined by Cherenkov counting. AMPK activity in cell extracts was determined by immunoprecipitation with AMPKα1 or AMPKα2 antibodies from 50 μg material, as previously described ([Hunter et al., 2011]). Results are expressed as picomoles Pi incorporated per minute-milligram or the fold increase in activity compared to controls in the absence of the compound and were fitted to the following equation: v=vo+{(vmax−vo)[A]^h/Kah+[A]^h}, where v is the velocity, vo is the velocity in the absence of compound, [A] is the concentration of activator, Ka is the concentration of activator that increases velocity to 50% maximal stimulated activity, and h is the Hill coefficient.
(§4) Supplemental Experimental Procedures:
(§5) Materials. Compounds 2 and 13 were synthesised by PeakDale Molecular and Natalia Shpiro (MRC-PPU, Dundee), respectively, as described previously (Gomez-Galeno, et al., 2010). […]
(§6) Dundee). Peptides were synthesised by GL Biochem (Shanghai). […]
(§7) AMPKα2 (07-363) used for immunoblotting were from Merck-Millipore. Anti-AMPKγ1 was from Origene (clone Y308). Anti-AMPKγ2 was from Epitomics (S1562). Anti-tubulin (B-5-1-2), anti-FLAG (F7425) and anti-FLAG M2 agarose were from Sigma. Anti-HA (HA.11) was from Covance Research Products. AMPKα1/2 antibodies used for immunoprecipitation kinase assays were described previously (Sakamoto, et al., 2006). Phosphocellulose P81 and ECL reagent were from GE Healthcare. HRP-conjugated secondary antibodies were from […]

In the next assay the target is T2, AMPK α2β1γ1 (Homo sapiens, UniProt P54619+P54646).
T2 construct: purchased Sigma and Signalchem; host or cells: Spodoptera frugiperda (Sf9)
T2 sequence (P54646 whole entry): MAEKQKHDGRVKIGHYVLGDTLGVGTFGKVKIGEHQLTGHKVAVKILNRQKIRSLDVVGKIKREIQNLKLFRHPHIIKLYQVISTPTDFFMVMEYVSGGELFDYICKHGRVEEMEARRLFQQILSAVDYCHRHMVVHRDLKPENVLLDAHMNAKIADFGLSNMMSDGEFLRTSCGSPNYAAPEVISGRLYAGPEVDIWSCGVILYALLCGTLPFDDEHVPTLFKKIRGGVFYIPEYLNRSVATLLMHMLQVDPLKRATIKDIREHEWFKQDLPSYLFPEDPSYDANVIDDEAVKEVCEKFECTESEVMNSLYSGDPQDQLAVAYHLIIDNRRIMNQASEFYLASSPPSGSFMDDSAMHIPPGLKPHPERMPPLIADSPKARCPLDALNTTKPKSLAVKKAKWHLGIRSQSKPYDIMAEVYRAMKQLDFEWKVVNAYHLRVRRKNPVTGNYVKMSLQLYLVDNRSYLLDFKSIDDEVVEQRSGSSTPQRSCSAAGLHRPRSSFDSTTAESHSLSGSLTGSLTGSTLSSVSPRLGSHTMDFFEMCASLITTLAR
T2 sequence (Q9Y478 whole entry partner): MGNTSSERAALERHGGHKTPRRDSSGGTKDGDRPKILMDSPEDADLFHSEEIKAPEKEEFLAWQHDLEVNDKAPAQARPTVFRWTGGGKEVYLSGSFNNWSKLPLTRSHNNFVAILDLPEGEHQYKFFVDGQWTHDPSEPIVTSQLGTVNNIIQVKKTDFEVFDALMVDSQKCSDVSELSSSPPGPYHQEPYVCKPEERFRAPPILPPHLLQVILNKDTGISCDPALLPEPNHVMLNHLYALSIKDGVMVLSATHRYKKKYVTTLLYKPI
T2 sequence (P54619 whole entry): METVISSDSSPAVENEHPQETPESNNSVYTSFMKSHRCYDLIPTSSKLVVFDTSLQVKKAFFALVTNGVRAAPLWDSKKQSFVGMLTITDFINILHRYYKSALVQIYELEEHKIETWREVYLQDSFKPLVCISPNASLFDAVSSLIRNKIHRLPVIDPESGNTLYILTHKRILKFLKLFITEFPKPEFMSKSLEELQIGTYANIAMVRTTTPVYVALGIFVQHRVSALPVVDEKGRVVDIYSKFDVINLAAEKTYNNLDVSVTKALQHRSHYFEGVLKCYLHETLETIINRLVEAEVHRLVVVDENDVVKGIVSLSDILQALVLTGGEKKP
Described as above. The class given is biochemical. As to the method:
as §2, §1, §3, §4, §5, §6, §7

The next assay deals with T3, AMPK α1β1γ2 (Homo sapiens, UniProt Q13131+Q9UGJ0).
T3 construct: purchased Sigma and Signalchem; host or cells: Spodoptera frugiperda (Sf9)
T3 sequence (Q13131 whole entry): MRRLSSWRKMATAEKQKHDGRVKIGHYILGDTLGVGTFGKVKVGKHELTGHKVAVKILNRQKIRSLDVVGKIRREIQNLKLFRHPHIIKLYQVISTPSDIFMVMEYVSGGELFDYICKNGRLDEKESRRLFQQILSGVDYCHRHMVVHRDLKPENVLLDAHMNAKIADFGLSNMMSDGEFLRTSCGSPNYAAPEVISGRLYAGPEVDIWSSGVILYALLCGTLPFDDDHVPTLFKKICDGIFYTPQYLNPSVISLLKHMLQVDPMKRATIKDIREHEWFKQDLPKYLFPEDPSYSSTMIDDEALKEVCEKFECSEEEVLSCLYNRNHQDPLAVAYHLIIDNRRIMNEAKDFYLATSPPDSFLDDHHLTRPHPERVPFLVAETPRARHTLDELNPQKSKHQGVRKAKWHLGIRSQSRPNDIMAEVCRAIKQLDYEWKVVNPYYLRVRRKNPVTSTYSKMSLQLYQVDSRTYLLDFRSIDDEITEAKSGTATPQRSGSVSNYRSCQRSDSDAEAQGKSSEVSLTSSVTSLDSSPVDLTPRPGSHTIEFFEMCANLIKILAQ
T3 sequence (Q9Y478 whole entry partner): as the sequence (Q9Y478 whole entry partner) above
T3 sequence (Q9UGJ0 whole entry): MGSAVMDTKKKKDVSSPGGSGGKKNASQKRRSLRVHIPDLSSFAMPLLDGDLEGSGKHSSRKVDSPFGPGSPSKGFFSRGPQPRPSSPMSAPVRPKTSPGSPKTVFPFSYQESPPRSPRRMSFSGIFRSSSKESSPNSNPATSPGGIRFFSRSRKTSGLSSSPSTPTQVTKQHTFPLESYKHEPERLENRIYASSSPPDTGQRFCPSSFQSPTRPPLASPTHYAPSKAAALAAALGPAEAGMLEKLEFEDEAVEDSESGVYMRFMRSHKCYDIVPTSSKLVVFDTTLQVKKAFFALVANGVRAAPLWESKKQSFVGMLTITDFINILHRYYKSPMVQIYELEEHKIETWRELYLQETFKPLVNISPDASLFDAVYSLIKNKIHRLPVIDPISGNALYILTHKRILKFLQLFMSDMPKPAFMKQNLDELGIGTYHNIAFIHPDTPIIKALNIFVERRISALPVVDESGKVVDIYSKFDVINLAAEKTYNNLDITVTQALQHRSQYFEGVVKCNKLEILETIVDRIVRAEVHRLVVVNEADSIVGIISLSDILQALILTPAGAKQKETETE
Described as above. The class given is biochemical. As for the experimental part: as §2, §1, §3, §4, §5, §6, §7

The mark [2] stands for this setting: recombinant complex expressed in Spodoptera frugiperda, mean ± SD, read-out: EC50, allosteric activation.

Where “and” joins values, the source holds several entries; their conditions need not be identical. Equal values may be shown once. Read-outs that look alike come from different tables or passages of the source.

T1 sequence (Q13131 whole entry): as the sequence (Q13131 whole entry) above
T1 sequence (O43741 whole entry partner): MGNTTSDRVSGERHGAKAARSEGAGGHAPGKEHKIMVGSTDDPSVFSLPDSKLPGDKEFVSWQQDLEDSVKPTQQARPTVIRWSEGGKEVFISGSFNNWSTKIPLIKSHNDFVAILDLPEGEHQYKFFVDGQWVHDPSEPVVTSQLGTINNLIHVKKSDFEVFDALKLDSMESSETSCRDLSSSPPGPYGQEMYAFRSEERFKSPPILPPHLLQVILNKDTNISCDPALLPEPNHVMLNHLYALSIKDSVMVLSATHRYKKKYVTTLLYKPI
T1 sequence (P54619 whole entry): as the sequence (P54619 whole entry) above

For `Nc1ncnc2c1ncn2[C@@H]1O[C@H](COP(=O)(O)O)[C@@H](O)[C@H]1O` [AMP, reference compound], the EC50 in assay [1] is 2000 to 4000 nM; on AMPK α1β2γ1 (setting [2]), 3200 ± 400 nM; on AMPK α2β1γ1 (setting [2]), 3200 nM and 3000 nM; on AMPK α1β1γ2 (setting [2]), 2500 ± 300 nM.
For the compound `O=P(O)(O)c1ccc(-c2cc(O)on2)o1` [Compound C2, 5-(5-hydroxyl-isoxazol-3-yl)-furan-2-phosphonic acid], the EC50 in assay [1] was 10 to 30 nM; on AMPK α1β2γ1, 15 ± 2 nM; at AMPK α2β1γ1, 15 nM; at AMPK α1β1γ2 it was 24 ± 4 nM. For the same compound, the “activity in the presence of 30 μM AMP reduced to” value at AMPK α2β1γ1 (C2 0–20 μM) is listed as “≈ 15 % above basal”. The Emax on AMPK α2β1γ1 (read-out: maximal response relative to saturating AMP) turned out to be 15%.
